Results from patent US20120064008A1, “COMPOSITIONS FOR THE TREATMENT OF METASTATIC CANCER AND METHODS OF USE THEREOF” (priority 2009, published 2012).

Legend:
PC-3MLN4 cells = experiment: Experimental bone metastasis model, PC-3MLN4 cells expressing luciferase, intraosseous; format: in vivo, immunocompromised mice; settings: 100 mg/kg for two weeks
Procedure: (§1) Using the metastatic prostate cancer PC-3MLN4 cells that expressed luciferase, the anti-tumor effects of benzimidazoles in a model of experimental bone metastasis were investigated. Cells were inoculated directly into a single tibia of immunocompromised mice via intraosseous injection. When bone lesions were confirmed to be growing via bioluminescent imaging, mice were randomized and treated with vehicle or with 100 mg/kg albendazole for two weeks. […] There was a significant difference in average luciferase signal between the two groups over the course of treatment (P<0.05).
At the end of study, the anatomical and radiographic characteristics of the bone lesions were evaluated with X-ray and micro-computerized tomography (CT) imaging.
as §1, with “(P<0.05) (see FIG. 13).” for “(P<0.05).”
At the end of study, the anatomical and radiographical characteristics of the bone lesions were evaluated with X-ray and micro-computerized tomography (CT) imaging.

lung metastases = experiment: Lung metastasis model, survival; format: in vivo, mice
Procedure: In the lung metastasis model, treatment was initiated 10 days after the animals were inoculated with tumor cells. At this time, the lungs were riddled with metastases. Formulations containing a benzimidazole were injected into the peritoneum three times per week. Half of the control mice died by day 27, only 17 days after the animals started receiving treatments. In contrast, half of the mice treated with fenbendazole were still alive on day 37 and one-third were still alive at day 45.

Structure (SMILES)	tumor growth (luciferase signal) compared to vehicle (PC-3MLN4 cells)	Ki-67 labeling index of bone lesions (PC-3MLN4 cells; P<0.005)	apoptotic index of bone lesions (activated caspase-3 staining) (PC-3MLN4 cells; P<0.005)	bone integrity (X-ray and micro-CT imaging) (PC-3MLN4 cells; end of study)	fraction of mice still alive at day 45 (lung metastases; i.p. three times per week from day 10 after inoculation)	day on which half of the mice were still alive (lung metastases; i.p. three times per week from day 10 after inoculation (half of control mice died by day 27))	prolonging the survival times compared with taxol (lung metastases; mouse, in vivo)
CCCSc1ccc2nc(NC(=O)OC)[nH]c2c1 [Albendazole, albendazole]	reduced tumor growth	reduction	increase	bone integrity was maintained			
COC(=O)Nc1nc2ccc(Sc3ccccc3)cc2[nH]1 [Fenbendazole, fenbendazole]					one-third	37 days	equivalent to taxol
